Values of other authors, collected in patent EP3027215B1, “POWDER FORMULATION OF VALGANCICLOVIR” (Ali Raif Ilaç Sanayi ve Ticaret Anonim Sirketi, priority 2013, dated 2015).

Legend:
[1] = solid form, stored under room temperature conditions
[2] = at pH 7.0

For `CC(C)[C@H](N)C(=O)OCC(CO)OCn1cnc2c(=O)[nH]c(N)nc21.Cl` (stereo partly drawn) [Valganciclovir hydrochloride, L-Valine, 2-[(2-amino-1,6-dihydro-6-oxo-9H-purin-9-yl)methoxy]-3-hydroxypropyl ester, monohydrochloride], the “physical, chemical, and light stability” value [1] is given as “acceptable” and the n-octanol-water partition coefficient [2] is given as 0.0095.
